Experimental findings from patent US20190276399A1, “POLYMORPH OF NINTEDANIB” (Olon S.P.A., priority 2016, published 2019) are described below.

The data set in a line: solubility in organic solvents and in water. In kind it is physicochemical. Particulars: in various organic solvents and in water; compared with nintedanib ethanesulphonate hemihydrate form known from WO 2004/013099.

Take `COC(=O)c1ccc2c(c1)NC(=O)/C2=C(\Nc1ccc(N(C)C(=O)CN2CCN(C)CC2)cc1)c1ccccc1` [methyl-(3Z)-3-{[(4-{methyl[(4-methylpiperazin-1-yl)acetyl]amino}phenyl)amino](phenyl)methylidene}-2-oxo-2,3-dihydro-1H-indole-6-carboxylate]: the solubility result was “better solubility in various organic solvents and in water”.
